Source: patent US20120121692A1, “COMPOUNDS AND COMPOSITIONS COMPRISING CDK INHIBITORS AND METHODS FOR TREATING CANCER” (SHANDONG UNIVERSITY, priority 2009, published 2012)
Where two headings read alike, the source gives them in different places.

What was measured:
[1] = tested on: HCT116 cells; assay: MTT cytotoxicity screening, human colon cancer cell line HCT116; type: cell-based; details: Homo sapiens
In short: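 HCT116 cells seeded at 2.5×10^4 cells/ml, treated 24 h later for 48 h with compounds in medium (final DMSO 0.1%-0.001% v/v); dose series 100 μM–1 μM or 10 μM–62.5 nM, primary screen at 100 and 10 μM. Viability read by MTT (4 h, 37° C), formazan dissolved in DMSO, absorbance 490 nm.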

[2] = HCT-116, 48 hrs incubation, absorbance 490 nm, primary screening, read-out: IC50

In the case of COc1cc(OC)c(C(=O)/C=C/c2ccc(Br)cc2)c(O)c1CN1CCOCC1 [Compound D4, (E)-3-(4-bromophenyl)-1-(2-hydroxy-4,6-dimethoxy-3-(morpholin-4-ylmethyl)phenyl)-2-propylene-1-one], the IC50 [1, 2] is reported as 5.52 µM, the IC50 ([1]; HCT-116, further evaluated after secondary screening (Table VIII), read-out: IC50 value) is reported as roughly 3 µM and the melting point is reported as 144 to 145 °C.
COc1cc(OC)c(C(=O)/C=C/c2cccc(Cl)c2)c(O)c1CN1CCOCC1 [Compound D5, (E)-3-(3-chlorophenyl)-1-(2-hydroxy-4,6-dimethoxy-3-(morpholinemethyl)phenyl)-2-propylene-1-one] gave an IC50 [1, 2] of 2.8 µM and a melting point of 135 to 136 °C.
Work on COc1cccc(/C=C/C(=O)c2c(OC)cc(OC)c(CN3CCOCC3)c2O)c1 [Compound D6, (E)-3-(3-methoxyphenyl)-1-(2-hydroxy-4,6-dimethoxy-3-(morpholinemethyl)-phenyl)-2-propylene-1-one] yielded an IC50 [1, 2] of 2.17 µM and a melting point of 169 to 170 °C.
In the case of COc1cc(OC)c(C2=CCN(C)CC2)c(O)c1C(=O)/C=C/c1ccco1 [Compound E1, (E)-3-(furan-2-yl)-1-(2-hydroxy-4,6-dimethoxy-3-(1-methyl-1,2,3,6-tetrahydro-pyridine-4-yl)phenyl)-2-propylene-1-one], the IC50 [1, 2] is reported as 10.2 µM and the melting point is reported as 145 to 146 °C.
In the case of COc1cc(OC)c(C2=CCNCC2)c(O)c1C(=O)/C=C/c1ccco1 [Compound E2, (E)-3-(furan-2-yl)-1-(2-hydroxy-4,6-dimethoxy-3-(1,2,3,6-tetrahydropyridin-4-yl)phenyl)-2-propylene-1-one], the IC50 [1, 2] is reported as 11.1 µM and the melting point is reported as 119 to 120 °C.
With COc1cc(OC)c(C(=O)/C=C/c2ccco2)c(O)c1CN1CCCCC1 [Compound E31, (E)-3-(furan-2-yl)-1-(2-hydroxy-4,6-dimethoxy-3-(piperidine-1-ylmethyl)phenyl)-2-propylene-1-one] the IC50 [1, 2] was 8.52 µM and the melting point was 95 to 96 °C.
Compound COc1cc(OC)c(C(=O)/C=C/c2ccco2)c(O)c1CN1CCOCC1 [Compound E32, (E)-3-(furan-2-yl)-1-(2-hydroxy-4,6-dimethoxy-3-(morpholin-4-ylmethyl)phenyl)-2-propylene-1-one] has an IC50 [1, 2] of 45.7 µM and a melting point of 147 to 148 °C.
COc1cc(OC)c2c(=O)cc(-c3ccc(C)cc3)oc2c1C1=CCN(C)CC1 [Compound F3, 5,7-dimethoxy-8-(1-methyl-1,2,3,6-tetrahydropyridin-4-yl)-2-(4-methylphenyl)-4H-chromen-4-one] gave an IC50 [1, 2] of 21.1 µM and a melting point of 113 to 114 °C.
COc1ccc(-c2cc(=O)c3c(OC)cc(OC)c(C4=CCN(C)CC4)c3o2)cc1 [Compound F4, 5,7-dimethoxy-8-(1-methyl-1,2,3,6-tetrahydropyridin-4-yl)-2-(4-methoxyphenyl)-4H-chromen-4-one] showed an IC50 [1, 2] of 17.3 µM and a melting point of 179 to 181 °C.
In the case of COc1cc(OC)c2c(=O)cc(-c3ccc(N(C)C)cc3)oc2c1C1=CCN(C)CC1 [Compound F5, 5,7-dimethoxy-8-(1-methyl-1,2,3,6-tetrahydropyridin-4-yl)-2-(4-(dimethylamino)-phenyl)-4H-chromen-4-one], the IC50 [1, 2] is reported as 7.71 µM and the melting point is reported as 148 to 150 °C.
With COc1cccc(-c2cc(=O)c3c(OC)cc(OC)c(C4=CCN(C)CC4)c3o2)c1OC [Compound F6, 5,7-dimethoxy-8-(1-methyl-1,2,3,6-tetrahydropyridin-4-yl)-2-(2,3-dimethoxy-phenyl)-4H-chromen-4-one] the IC50 [1, 2] was 61.3 µM and the melting point was 195 to 196 °C.
Work on COc1ccc(-c2cc(=O)c3c(OC)cc(OC)c(C4=CCN(C)CC4)c3o2)c(OC)c1OC [Compound F7, 5,7-dimethoxy-8-(1-methyl-1,2,3,6-tetrahydropyridin-4-yl)-2-(2,3,4-trimethoxy-phenyl)-4H-chromen-4-one] yielded an IC50 [1, 2] of 9.17 µM and a melting point of 209 to 210 °C.
Compound COc1cc(-c2cc(=O)c3c(OC)cc(OC)c(C4=CCN(C)CC4)c3o2)cc(OC)c1OC [Compound F8, 5,7-dimethoxy-8-(1-methyl-1,2,3,6-tetrahydropyridin-4-yl)-2-(3,4,5-trimethoxy-phenyl)-4H-chromen-4-one] has an IC50 [1, 2] of 25.9 µM and a melting point of 211 to 212 °C.
Work on Cc1cccc(-c2cc(=O)c3c(O)cc(O)c(C4=CCN(C)CC4)c3o2)c1 [Compound G2, 5,7-hydroxy-8-(1-methyl-1,2,3,6-tetrahydropyridin-4-yl)-2-(3-methylphenyl)-4H-chromen-4-one] yielded an IC50 [1, 2] of 3.65 µM and a melting point of 179 to 180 °C.
Cc1ccc(-c2cc(=O)c3c(O)cc(O)c(C4=CCN(C)CC4)c3o2)cc1 [Compound G3, 5,7-hydroxy-8-(1-methyl-1,2,3,6-tetrahydropyridin-4-yl)-2-(4-methylphenyl)-4H-chromen-4-one] gave an IC50 [1, 2] of 3.42 µM and a melting point of 160 to 161 °C.
Work on COc1ccc(-c2cc(=O)c3c(O)cc(O)c(C4=CCN(C)CC4)c3o2)cc1 [Compound G4, 5,7-hydroxy-8-(1-methyl-1,2,3,6-tetrahydropyridin-4-yl)-2-(4-methoxyphenyl)-4H-chromen-4-one] yielded an IC50 [1, 2] of 3.16 µM and a melting point of 190 to 191 °C.
